Laboratory results reported in US12241102B2, “Method for synthesizing betalain pigment” (priority 2018, dated 2025).

Experiments:
[1] = biological target: T1, HIV-1 protease (Human immunodeficiency virus type 1 group M subtype B, UniProt P04585); assay: Evaluation of HIV-1 protease inhibitory activity (residual substrate peptide by HPLC); assay type: biochemical; parameters: A recombinant HIV-1 protease (ab84117) from Abcam was used as an HIV-1 protease; purchased Abcam ab84117; conditions: 25° C., 2 hours, pH 4.7
From the text: FIG. 15 show the results of evaluation of inhibition of an HIV-1 protease. FIG. 15A includes HPLC chromatograms of HIV-1 protease reaction mixtures. Dashed and solid arrows indicate an HIV-1 protease substrate and its degradation product, respectively. (+) and (−)HIV-1 protease indicate reaction mixtures with and without the HIV-1 protease, respectively. (−)Betalain indicates a reaction mixture without betalain pigments. The horizontal axis indicates the retention time (min), and the vertical axis indicates the signal intensity (μV). […] Gray and black bars indicate reaction mixtures containing betanin and amaranthin, respectively. The white bar indicates the reaction mixture without betalain pigments as a negative control. Bars represent the mean±SE (n=3). Symbol “*” represents p<0.05 as compared to the reaction mixture without betalain pigments. 0, 10, 50, and 100 indicate 0-, 10-, 50-, and 100-fold amounts of betalain as compared to the HIV-1 protease. […]
After the reaction, the reaction liquid was measured for the amount of the residual substrate peptide through use of HPLC, and a residual ratio with respect to the substrate before the reaction was calculated. […] Analysis was performed with an analytical wavelength being set to 260 nm allowing the HIV-1 protease substrate peptide to be detected.

[2] = test system: Human breast cancer cells (MCF-7); assay: Influence of betalain pigment on human breast cancer cells (AlamarBlue assay); assay type: cell-based; conditions: MCF-7 cells, concentration of 50 μM, cultured for 72 hours, p<0.05 vs untreated cells
Description: FIG. 14 show the results of evaluation of cell proliferation in MCF-7 cells. FIG. […] Cell proliferation was determined using an AlamarBlue assay according to the manufacturer's instructions. Bars represent the mean±SE (n=5). Symbol “*” represents p<0.05 as compared to untreated cells. […] Cells were examined under an inverted microscope. Bars represent 100 μm.
Human breast cancer cells (MCF-7) were received from the RIKEN BioResource Center. For the culture of the cells, Dulbecco's modified Eagle's medium-high glucose (4.5 g L^−1 glucose; DMEM-HG) supplemented with 10% FBS and antibiotics (100 U mL^−1 penicillin and 100 μg mL^−1 streptomycin) was used. The cells were cultured under the culture conditions of 37° C., a humidity of 100%, and a 5% CO2/95% air atmosphere. For the culture, the breast cancer cells were added at 5,000 cells per well on 96-well plates, and at the same time, amaranthin or betanin was added at different concentrations, and the cells were cultured for 72 hours. After that, the activity of the breast cancer cells was evaluated by an AlamarBlue assay (alamarBlue Cell Viability Reagent, Thermo Fisher Scientific). The procedure followed the accompanying instructions.

[3] = biological target: T1, HIV-1 protease; conditions: literature virtual screening, not tested experimentally there; cited from earlier work

Compound	inhibitory activity on the HIV-1 protease ([1]; 10-, 50- and 100-fold amounts with respect to the HIV-1 protease)	cancer cell activity of the breast cancer cells [2]	activity of the HIV-1 protease ([1]; 100-fold amount with respect to the HIV-1 protease (16 pmol))	virtual screening prediction as HIV-1 protease inhibitor [3]
O=C(O)C1=C/C(=C/C=[N+]2/c3cc(O)c(OC4OC(CO)[C@@H](O)C(O)C4O)cc3CC2C(=O)[O-])CC(C(=O)O)N1 (stereo in doubt) [betanin, reference compound]	not found to have inhibitory activity	significantly suppressed	–	–
O=C(O)C1=C/C(=C/C=[N+]2c3cc(O)c(O[C@@H]4O[C@H](CO)[C@@H](O)[C@H](O)[C@H]4O[C@@H]4O[C@H](C(=O)O)[C@@H](O)[C@H](O)[C@H]4O)cc3C[C@H]2C(=O)[O-])C[C@@H](C(=O)O)N1 [amaranthin]	–	significantly suppressed	significantly inhibited	candidate of a novel HIV-1 protease inhibitor
